Where two headings read alike, the source gives them in different places.
What was measured:
[1] = test system: RPP tumor; experiment: Flank RPP (SCLC) tumor growth in B6129F1 immunocompetent mice; format: in vivo, mouse; conditions: anti-PD-L1 300 μg 1-day-on/6-days-off
Protocol: (§1) Tumors were evaluated twice weekly for the duration of the study. Tumor volumes were measured on all mice three times per week and calculated (width^2×length×0.4) using manual calipers. Once the average tumor size was in the range of 120-150 mm^3, mice were randomized into dosing groups using stratified sampling by assigning three animals per group for short-term reverse-phase protein array analysis and long-term treatment. Dosing schedules and duration varied depending on the study. Mice were weighed three times per week for the duration of the study, and a decrease in body weight >15% was considered indicative of a toxic dose. The Student t-test was used to determine statistical significance between compound- and vehicle-treated groups.
[…] 15A.

[2] = test system: MBT-2; experiment: MBT-2 bladder flank tumor growth in immunocompetent mice; format: in vivo, mouse; conditions: SRA737 100 mg/kg 5-days-on/2-days-off p.o., anti-PD1 BIW 10 mg/kg i.p.
Protocol: as §1
Tumors cells were implanted into the flank of immunocompetent mice. Once the volumes of the tumor reached 150-200 mm^3, the mice were randomized and treated with either monotherapy of SRA737 at 100 mg/kg for 5-days-on/2-days-off p.o., anti-PD1 BIW at 10 mg/kg i.p. or the combination thereof.

[3] = SRA737 plasma and tumor concentrations in HT29 xenograft model; format: in vivo; conditions: mouse, oral
Protocol: For each dose, columns from left to right are concentrations in plasma at 6 hours, plasma at 24 hours, tumor at 6 hours, and tumor at 24 hours, respectively.
The effect of SRA737 on Gemcitabine induced Chk1 S296 autophosphorylation was assessed as described in Walton et al. (Oncotarget. 2016 Jan. 19; 7(3): 2329-2342), herein incorporated by reference for all it teaches. Briefly, mice bearing HT29 tumor xenografts were administered (i) vehicle control or (ii) gemcitabine (100 mg/kg in saline, IV) or ([…]) and gemcitabine (100 mg/kg) with SRA737 administered 24 hours following gemcitabine administration (n=3 per time point per treatment). […] Exposure in the tumor was greater than 10-fold higher than in plasma. The circulating plasma concentration at this 24-hour timepoint corresponded to a free drug concentration of approximately 6 nM (2 ng/mL) based on plasma protein binding in mice of 94%.

[4] = test system: IFNβ, CXCL10 and CCL5; experiment: qPCR of IFNβ, CXCL10 and CCL5 mRNA in SCLC cell lines; format: cell-based; conditions: 24 and 72 hours
Protocol: “Con” indicates control. Data presented as mean±SD and p values by t-test ***p<0.001.
(§2) Real-time PCR was done using SYBR Select Master Mix (Life Technologies, cat #4472908) according to the manufacturer's protocol. Primers were purchased from Sigma Aldrich, Inc. Triplicate PCR reactions were run on ABI (7500 Fast Real Time PCR System). The comparative Ct method using the average 2ΔΔCT value for each set of triplicates was used, and the average of the biological replicates was calculated. Negative controls were included for every primer set, and GAPDH was used as the […].

[5] = test system: CXCL10 and CCL5; experiment: qPCR of CXCL10 and CCL5 in MBT-2 tumors; format: in vivo, mouse
Description: FIGS. 23A-D show the qPCR measurement of CXCL10 and CCL5 mRNA expression in MBT-2 (FIG. 23A and FIG. 23B) and MC38 (FIG. 23C and FIG. 23D) tumors resected after 7 or 14 days of treatment with SRA737 5/7 days. Data presented as mean±SD and p values by t-test * p<0.05, **p<0.01, ***p<0.001.
as §2
The flank of immunocompetent mice was then treated with SRA737 monotherapy for 5-days-on/2-days-off for either one or two cycles and the expression of CCL5 and CXCL10 in extracted tumors were analyzed. […] The previously used dosing regimen of 5-days-on/2-days-off was modified to a schedule of 7-days-on/7-days-off for SRA737 treatment with or without co-treatment with anti-PD1 (Days 3, 7 and 11) based on the results of induction of chemokines secretion after 7 days.

N#Cc1cnc(Nc2cc(NCC3CNCCO3)c(C(F)(F)F)cn2)cn1 (stereo not shown) [SRA737, 5-[[4-[[morpholin-2-yl]methylamino]-5-(trifluoromethyl)-2-pyridyl]amino]pyrazine-2-carbonitrile]
anti-tumor response (tumor growth) ([1]; SRA737 100 mg/kg 3-days-on/4-days-off or 5-days-on/2-days-off): significant reduction in tumor growth
anti-tumor effect (tumor volume) ([1]; LDG 40 mg/kg 1-day-on/6-days-off, SRA737 100 mg/kg 2-day-on/5-days-off): no significant anti-tumor effect
TGI [2]: 53%
concentration at 6 h ([3]; plasma, HT29 xenograft, Dose 12.5 mg/kg, read-out: Plasma (6 h)): 1.01 µM
concentration at 24 h ([3]; plasma, HT29 xenograft, Dose 12.5 mg/kg, read-out: Plasma (24 h)): 0.0777 µM
concentration at 6 h ([3]; plasma, HT29 xenograft, Dose 25 mg/kg, read-out: Plasma (6 h)): 2.52 µM
concentration at 24 h ([3]; plasma, HT29 xenograft, Dose 25 mg/kg, read-out: Plasma (24 h)): 0.893 µM
concentration at 6 h ([3]; plasma, HT29 xenograft, Dose 50 mg/kg, read-out: Plasma (6 h)): 3.96 µM
concentration at 24 h ([3]; plasma, HT29 xenograft, Dose 50 mg/kg, read-out: Plasma (24 h)): 0.512 µM
concentration at 6 h ([3]; plasma, HT29 xenograft, Dose 100 mg/kg, read-out: Plasma (6 h)): 5.84 µM
concentration at 24 h ([3]; plasma, HT29 xenograft, Dose 100 mg/kg, read-out: Plasma (24 h)): 1.67 µM
concentration at 24 h ([3]; plasma, mice, PK/PD benchmark): > 0.1 µM
concentration at 6 h ([3]; tumor, HT29 xenograft, Dose 3.125 mg/kg, read-out: Tumor (6 h)): 3.18 µM
concentration at 24 h ([3]; tumor, HT29 xenograft, Dose 3.125 mg/kg, read-out: Tumor (24 h)): 0.646 µM
concentration at 6 h ([3]; tumor, HT29 xenograft, Dose 6.25 mg/kg, read-out: Tumor (6 h)): 4.01 µM
concentration at 24 h ([3]; tumor, HT29 xenograft, Dose 6.25 mg/kg, read-out: Tumor (24 h)): 0.966 µM
concentration at 6 h ([3]; tumor, HT29 xenograft, Dose 12.5 mg/kg, read-out: Tumor (6 h)): 19 µM
concentration at 24 h ([3]; tumor, HT29 xenograft, Dose 12.5 mg/kg, read-out: Tumor (24 h)): 3.97 µM
concentration at 6 h ([3]; tumor, HT29 xenograft, Dose 25 mg/kg, read-out: Tumor (6 h)): 37.5 µM
concentration at 24 h ([3]; tumor, HT29 xenograft, Dose 25 mg/kg, read-out: Tumor (24 h)): 16.3 µM
concentration at 6 h ([3]; tumor, HT29 xenograft, Dose 50 mg/kg, read-out: Tumor (6 h)): 76.3 µM
concentration at 24 h ([3]; tumor, HT29 xenograft, Dose 50 mg/kg, read-out: Tumor (24 h)): 27.5 µM
concentration at 6 h ([3]; tumor, HT29 xenograft, Dose 100 mg/kg, read-out: Tumor (6 h)): 132 µM
concentration at 24 h ([3]; tumor, HT29 xenograft, Dose 100 mg/kg, read-out: Tumor (24 h)): 102 µM
IFNβ, CXCL10 and CCL5 (targets of IRF3) [4]: activated
CCL5 levels ([5]; after 7 days, p<0.01): significantly induced
CCL5 levels ([5]; after 14 days): no significant difference
CXCL10 expression ([5]; after both 7 days and 14 days, p<0.05): significant induction
